Reference: patent US10173968B2, “Bishydrazone-based antifungal agents” (University of Kentucky Research Foundation, priority 2016, dated 2019)
In brackets after ≈: the same amount, converted by molar mass. Read-outs that look alike come from different tables or passages of the source.

Legend:
[1] = system: all bacterial strains tested; test: Antibacterial MIC, summary over the panel; format: cell-based; conditions: read-out: MIC, span over all bacterial strains tested
Procedure: (§1) MIC values were determined against a variety of Gram-positive (strains A-D) and Gram-negative (E-J) bacterial and mycobacterial (K) strains using the double-dilution method, as previously published. Preliminary screening was performed using 500 μM of each compound.

[2] = system: P. aeruginosa ATCC 27853; test: Antibacterial MIC, double-dilution method; format: cell-based; conditions: Pseudomonas aeruginosa, ATCC27853, strain I, Gram-negative, read-out: MIC
Procedure: as §1

[3] = system: S. enterica ATCC 14028; test: Antibacterial MIC, double-dilution method; format: cell-based; conditions: Salmonella enterica, ATCC14028, strain J, Gram-negative, read-out: MIC
Procedure: as §1

[4] = system: MRSA; test: Antibacterial MIC, double-dilution method; format: cell-based; conditions: Staphylococcus aureus, strain C, Gram-positive, read-out: MIC
Procedure: as §1

[5] = system: K. pneumoniae ATCC 27736; test: Antibacterial MIC, double-dilution method; format: cell-based; conditions: Klebsiella pneumoniae, ATCC27736, strain H, Gram-negative, read-out: MIC
Procedure: as §1

[6] = system: B. subtilis 168; test: Antibacterial MIC, double-dilution method; format: cell-based; conditions: Bacillus subtilis, strain A, Gram-positive
Procedure: as §1

[7] = system: A. baumannii ATCC 19606; test: Antibacterial MIC, double-dilution method; format: cell-based; conditions: Acinetobacter baumannii, ATCC19606, strain E, Gram-negative, read-out: MIC
Procedure: as §1

[8] = system: E. cloacae ATCC 13047; test: Antibacterial MIC, double-dilution method; format: cell-based; conditions: Enterobacter cloacae, ATCC13047, strain F, Gram-negative, read-out: MIC
Procedure: as §1

[9] = system: E. coli MC1061; test: Antibacterial MIC, double-dilution method; format: cell-based; conditions: Escherichia coli, strain G, Gram-negative, read-out: MIC
Procedure: as §1

[10] = system: L. monocytogenes ATCC 19115; test: Antibacterial MIC, double-dilution method; format: cell-based; conditions: Listeria monocytogenes, ATCC19115, strain B, Gram-positive, read-out: MIC
Procedure: as §1

[11] = system: VRE; test: Antibacterial MIC, double-dilution method; format: cell-based; conditions: Enterococcus, strain D, Gram-positive, read-out: MIC
Procedure: as §1

[12] = system: M. smegmatis MC2-155; test: Antibacterial MIC, double-dilution method; format: cell-based; conditions: Mycolicibacterium smegmatis, MC2155, strain K, mycobacterial, read-out: MIC
Procedure: as §1

[13] = system: C. albicans ATCC 2876; test: Antifungal MIC, CLSI M27-A3 microbroth dilution; format: cell-based, Candida albicans; conditions: Candida albicans, ATCC2876, C. albicans ATCC 2876, susceptible to FLC, ITC, and VOR, read-out: MIC
Procedure: (§2) In vitro MIC testing was performed according to the CLSI M27-A3 standard microbroth dilution methodology for the susceptibility testing of yeasts with minor modifications.

[14] = system: C. albicans ATCC 1003; test: Antifungal MIC, CLSI M27-A3 microbroth dilution; format: cell-based, Candida albicans; conditions: Candida albicans, ATCC1003, read-out: MIC
Procedure: as §2

[15] = system: C. albicans ATCC 2310; test: Antifungal MIC, CLSI M27-A3 microbroth dilution; format: cell-based, Candida albicans; conditions: Candida albicans, ATCC2310, C. albicans ATCC 2310, susceptible to FLC, ITC, and VOR, read-out: MIC
Procedure: as §2

[16] = system: C. albicans ATCC 64124; test: Antifungal MIC, CLSI M27-A3 microbroth dilution; format: cell-based, Candida albicans; conditions: Candida albicans, ATCC64124, C. albicans ATCC 64124, resistant to FLC, ITC, and VOR, read-out: MIC
Procedure: as §2

[17] = system: C. albicans ATCC 1237; test: Antifungal MIC, CLSI M27-A3 microbroth dilution; format: cell-based, Candida albicans; conditions: Candida albicans, ATCC1237, C. albicans ATCC 1237, resistant to FLC, ITC, and VOR, read-out: MIC
Procedure: as §2

[18] = system: C. albicans ATCC 10231; test: Antifungal MIC, CLSI M27-A3 microbroth dilution; format: cell-based, Candida albicans; conditions: Candida albicans, ATCC10231, C. albicans ATCC 10231, resistant to FLC, ITC, and VOR, read-out: MIC
Procedure: as §2

[19] = system: C. albicans ATCC 90819; test: Antifungal MIC, CLSI M27-A3 microbroth dilution; format: cell-based, Candida albicans; conditions: Candida albicans, ATCC90819, C. albicans ATCC 90819, resistant to FLC, ITC, and VOR, read-out: MIC
Procedure: as §2

[20] = system: C. albicans strains (panel of seven); test: Antifungal MIC, summary over the panel; format: cell-based, Candida albicans; conditions: Candida albicans; all, most or majority of the fungal strains; read-out: MIC, span over C. albicans strains
Procedure: In vitro MIC testing was performed according to the CLSI M27-A3 standard microbroth dilution methodology for the susceptibility testing of yeasts with minor modifications. […] MIC values were read visually for all tested compounds, and the endpoint was determined as the minimum concentration of compound that yielded complete inhibition relative to growth control.

Compound | MIC ([2]; converted from μM) [µg/mL] | MIC ([2]; range 0.5 to 500 μM) [µM] | MIC ([3]; converted from μM) [µg/mL] | MIC ([3]; range 0.5 to 500 μM) [µM] | MIC ([4]; converted from μM) [µg/mL] | MIC ([4]; range 0.5 to 500 μM) [µM] | MIC ([5]; converted from μM) [µg/mL] | MIC ([5]; range 0.5 to 500 μM) [µM] | MIC ([6]; converted from μM) [µg/mL] | MIC ([6]; range 0.5 to 500 μM) [µM] | MIC ([7]; converted from μM) [µg/mL] | MIC ([7]; range 0.5 to 500 μM) [µM] | MIC ([8]; converted from μM) [µg/mL] | MIC ([8]; range 0.5 to 500 μM) [µM] | MIC ([9]; converted from μM) [µg/mL] | MIC ([9]; range 0.5 to 500 μM) [µM] | MIC ([10]; converted from μM) [µg/mL] | MIC ([10]; range 0.5 to 500 μM) [µM] | MIC ([11]; converted from μM) [µg/mL] | MIC ([11]; range 0.5 to 500 μM) [µM] | also measured
CC1COc2c(N3CCN(C)CC3)c(F)cc3c(=O)c(C(=O)O)cn1c23 (stereo not shown) [OFX, ofloxacin, reference compound] | 1.4 | 3.9 | 5.6 to 11.3 | 15.6 to 31.3 | 0.4 | 1 | 5.6 to 11.3 | 15.6 to 31.3 | ≤ 0.2 | ≤ 0.5 | ≤ 0.2 | ≤ 0.5 | ≤ 0.2 | ≤ 0.5 | 1.4 to 2.8 | 3.9 to 7.8 | 0.4 | 1 | 2.8 | 7.8 | MIC [1]: 0.5 to 31.3 µM (≈ 0.181 to 11.3 µg/mL); MIC ([12]; converted from μM): 5.6 µg/mL; MIC ([12]; range 0.5 to 500 μM): 15.6 µM
Cl.N=C(N)N/N=C/c1ccc(-c2ccc(/C=N/Nc3ccc(Cl)cc3Cl)cc2)cc1 [Compound 7Ag, (E)-2-((4′-((E)-(2-(2,4-dichlorophenyl)hydrazono)methyl)-[1,1′-biphenyl]-4-yl)methylene)hydrazine-1-carboximidamide hydrochloride] | > 231 | > 500 | > 231 | > 500 | 3.6 | 7.8 | > 231 | > 500 | > 231 | > 500 | > 231 | > 500 | > 231 | > 500 | > 231 | > 500 | 3.6 | 7.8 | 3.6 | 7.8 | melting point: 356 to 358 °C; MIC ([13]; converted from μg/mL): 33.8 µM; MIC [13]: 15.6 µg/mL; MIC ([14]; C. albicans ATCC 1003, converted from μg/mL): 16.8 µM; MIC [14]: 7.8 µg/mL; MIC ([15]; converted from μg/mL): 16.8 µM; MIC [15]: 7.8 µg/mL; MIC ([16]; converted from μg/mL): 67.8 µM; MIC [16]: 31.3 µg/mL; MIC ([17]; converted from μg/mL): 33.8 µM; MIC [17]: 15.6 µg/mL; MIC ([18]; converted from μg/mL): 16.8 µM; MIC [18]: 7.8 µg/mL; MIC ([19]; converted from μg/mL): 67.8 µM; MIC [19]: 31.3 µg/mL; MIC ([12]; converted from μM): 1.8 µg/mL; MIC ([12]; range 0.5 to 500 μM): 3.9 µM; MIC [20]: 7.8 to 15.6 µg/mL
